How the values were obtained:
[1] = system: Mycosphaerella arachidis (Cercospora arachidicola); experiment: Mycosphaerella arachidis (Cercospora arachidicola) / liquid culture (early leaf spot); format: cell-based; details: compared to untreated control
Experimental: (§1) Example B9: Mycosphaerella arachidis (Cercospora arachidicola)/Liquid Culture (Early Leaf Spot) Conidia of the fungus from cryogenic storage are directly mixed into nutrient broth (PDB potato dextrose broth). After placing a (DMSO) solution of test compound into a microtiter plate (96-well format), the nutrient broth containing the fungal spores is added. The test plates are incubated at 24° C. and the inhibition of growth is determined photometrically 4 to 5 days after application.

[2] = system: Pyrenophora teres; experiment: Pyrenophora teres / barley / leaf disc preventative (net blotch); format: in vivo; details: foliar, compared to untreated control
Experimental: Example B12: Pyrenophora teres/Barley/Leaf Disc Preventative (Net Blotch) Barley leaf segments cv. Hasso are placed on agar in a multiwell plate (24-well format) and sprayed with the formulated test compound diluted in water. The leaf segments are inoculated with a spore suspension of the fungus 2 days after application. The inoculated leaf segments are incubated at 20° C. and 65% rh under a light regime of 12 h light/12 h darkness in a climate cabinet and the activity of a compound is assessed as disease control compared to untreated when an appropriate level of disease damage appears in untreated check leaf segments (5 to 7 days after application).

[3] = system: Alternaria solani; experiment: Alternaria solani / tomato / leaf disc (early blight); format: in vivo; details: foliar, compared to untreated control
Experimental: Example B1: Alternaria solani/Tomato/Leaf Disc (Early Blight) Tomato leaf disks cv. Baby are placed on agar in multiwell plates (24-well format) and sprayed with the formulated test compound diluted in water. The leaf disks are inoculated with a spore suspension of the fungus 2 days after application. The inoculated leaf disks are incubated at 23° C./21° C.

[4] = system: Mycosphaerella graminicola (Septoria tritici); experiment: Mycosphaerella graminicola (Septoria tritici) / liquid culture (Septoria blotch); format: cell-based; details: Zymoseptoria tritici, compared to untreated control
Experimental: as §1, with “B15:” for “B9:”, “graminicola (Septoria tritici)/Liquid” for “arachidis (Cercospora arachidicola)/Liquid”, “(Septoria Blotch)” for “(Early Leaf Spot)”

[5] = system: Monographella nivalis (Microdochium nivale); experiment: Monographella nivalis (Microdochium nivale) / liquid culture (foot rot cereals); format: cell-based; details: compared to untreated control
Experimental: as §1, with “B8: Monographella nivalis (Microdochium nivale)/Liquid” for “B9: Mycosphaerella arachidis (Cercospora arachidicola)/Liquid”, “(Foot Rot Cereals)” for “(Early Leaf Spot)”

[6] = system: Glomerella lagenarium (Colletotrichum lagenarium); experiment: Glomerella lagenarium (Colletotrichum lagenarium) / liquid culture (anthracnose); format: cell-based; details: Colletotrichum orbiculare, compared to untreated control
Experimental: as §1, with “B3: Glomerella lagenarium (Colletotrichum lagenarium)/Liquid” for “B9: Mycosphaerella arachidis (Cercospora arachidicola)/Liquid”, “(Anthracnose)” for “(Early Leaf Spot)”, “measured” for “determined”, “photometrically 3 to” for “photometrically”, “4” for “4 to 5”

[7] = system: Phytophthora infestans; format: in vivo; details: 200 ppm; tomato leaf disc preventative; compared to untreated control

Row | Compound | inhibition of growth at 20 ppm [1] [%] | pest or weed control at 200 ppm [2] [%] | pest or weed control at 200 ppm [3] [%] | inhibition of growth at 20 ppm [4] [%] | inhibition of growth at 20 ppm [5] [%] | inhibition of growth at 20 ppm [6] [%] | control of Phytophthora infestans [7]
1 | Cc1c(C2CN(C(=O)CCc3ccc(Cl)cc3)Cc3ccccc32)cnn1C (centres unmarked) [Compound P-22, 3-(4-chlorophenyl)-1-[4-(1,5-dimethylpyrazol-4-yl)-3,4-dihydro-1H-isoquinolin-2-yl]propan-1-one] | ≥ 80 | ≥ 80 | ≥ 80 | ≥ 80 | – | – | –
2 | CCCCCCC(=O)N1C[C@H](c2cnn(C)c2C)c2ccccc2[C@@H]1C (racemic) [Compound P-11, 1-[rac-(1S,4S)-4-(1,5-dimethylpyrazol-4-yl)-1-methyl-3,4-dihydro-1H-isoquinolin-2-yl]heptan-1-one] | ≥ 80 | ≥ 80 | ≥ 80 | ≥ 80 | ≥ 80 | ≥ 80 | –
3 | Cc1c(C2CN(C(=O)NCC3CCCCC3)Cc3ccccc32)cnn1C (centres unmarked) [Compound P-36, N-(cyclohexylmethyl)-4-(1,5-dimethylpyrazol-4-yl)-3,4-dihydro-1H-isoquinoline-2-carboxamide] | – | ≥ 80 | – | ≥ 80 | – | – | –
4 | Cc1c(C2CN(C(=O)CCC3CCCC3)Cc3ccccc32)cnn1C (centres unmarked) [Compound P-17, 3-cyclopentyl-1-[4-(1,5-dimethylpyrazol-4-yl)-3,4-dihydro-1H-isoquinolin-2-yl]propan-1-one] | – | – | – | ≥ 80 | – | – | at least 80%
5 | Cc1c([C@H]2CN(C(=O)CCCCC3CC3)[C@@H](C)c3ccccc32)cnn1C [Compound P-47, 5-cyclopropyl-1-[(1S,4S)-4-(1,5-dimethylpyrazol-4-yl)-1-methyl-3,4-dihydro-1H-isoquinolin-2-yl]pentan-1-one] | ≥ 80 | ≥ 80 | ≥ 80 | ≥ 80 | ≥ 80 | ≥ 80 | –
6 | Cc1c(C2CN(C(=O)NCCCCC(F)F)Cc3ccccc32)cnn1C (centres unmarked) [Compound P-50, N-(5,5-difluoropentyl)-4-(1,5-dimethylpyrazol-4-yl)-3,4-dihydro-1H-isoquinoline-2-carboxamide] | – | ≥ 80 | – | ≥ 80 | – | – | –
7 | CCCCCCC(=O)N1Cc2ccccc2C(c2cnn(C)c2C)C1 (centres unmarked) [Compound P-4, 1-[4-(1,5-dimethylpyrazol-4-yl)-3,4-dihydro-1H-isoquinolin-2-yl]heptan-1-one] | ≥ 80 | – | ≥ 80 | ≥ 80 | ≥ 80 | ≥ 80 | –
8 | CCCCCOC(=O)N1C[C@H](c2cnn(C)c2C)c2ccccc2[C@@H]1C (racemic) [Compound P-28, pentyl rac-(1S,4S)-4-(1,5-dimethylpyrazol-4-yl)-1-methyl-3,4-dihydro-1H-isoquinoline-2-carboxylate] | ≥ 80 | – | ≥ 80 | ≥ 80 | ≥ 80 | ≥ 80 | –
9 | Cc1c(C2CN(C(=O)CCCCCC(F)(F)F)Cc3ccccc32)cnn1C (centres unmarked) [Compound P-30, 1-[4-(1,5-dimethylpyrazol-4-yl)-3,4-dihydro-1H-isoquinolin-2-yl]-7,7,7-trifluoro-heptan-1-one] | ≥ 80 | – | – | ≥ 80 | ≥ 80 | – | –
10 | CCCCCNC(=O)N1C[C@H](c2cnn(C)c2C)c2ccccc2[C@@H]1C (racemic) [Compound P-43, rac-(1S,4S)-4-(1,5-dimethylpyrazol-4-yl)-1-methyl-N-pentyl-3,4-dihydro-1H-isoquinoline-2-carboxamide] | ≥ 80 | ≥ 80 | – | ≥ 80 | ≥ 80 | – | –
11 | Cc1c(C2CN(C(=O)NCCC3CCCCC3)Cc3ccccc32)cnn1C (centres unmarked) [Compound P-42, N-(2-cyclohexylethyl)-4-(1,5-dimethylpyrazol-4-yl)-3,4-dihydro-1H-isoquinoline-2-carboxamide] | ≥ 80 | – | – | ≥ 80 | ≥ 80 | – | –
12 | Cc1c([C@H]2CN(C(=O)CCCCC(F)F)[C@@H](C)c3ccccc32)cnn1C (racemic) [Compound P-27, 6,6-difluoro-1-[rac-(1S,4S)-4-(1,5-dimethylpyrazol-4-yl)-1-methyl-3,4-dihydro-1H-isoquinolin-2-yl]hexan-1-one] | ≥ 80 | ≥ 80 | – | ≥ 80 | ≥ 80 | – | –
13 | Cc1c(C2CN(C(=O)OCCC3CCCCC3)Cc3ccccc32)cnn1C (centres unmarked) [Compound P-2, 2-cyclohexylethyl 4-(1,5-dimethylpyrazol-4-yl)-3,4-dihydro-1H-isoquinoline-2-carboxylate] | ≥ 80 | – | – | ≥ 80 | ≥ 80 | ≥ 80 | –
14 | Cc1c([C@H]2CN(C(=O)CCc3ccc(F)cc3F)[C@@H](C)c3ccccc32)cnn1C (racemic) [Compound P-45, 3-(2,4-difluorophenyl)-1-[rac-(1S,4S)-4-(1,5-dimethylpyrazol-4-yl)-1-methyl-3,4-dihydro-1H-isoquinolin-2-yl]propan-1-one] | ≥ 80 | ≥ 80 | ≥ 80 | ≥ 80 | ≥ 80 | ≥ 80 | –
15 | Cc1c([C@H]2CN(C(=O)CCCCCC(F)(F)F)[C@@H](C)c3ccccc32)cnn1C (racemic) [Compound P-29, 7,7,7-trifluoro-1-[rac-(1S,4S)-4-(1,5-dimethylpyrazol-4-yl)-1-methyl-3,4-dihydro-1H-isoquinolin-2-yl]heptan-1-one] | ≥ 80 | ≥ 80 | ≥ 80 | ≥ 80 | ≥ 80 | – | –
16 | CCCCCCCC(=O)N1Cc2ccccc2C(c2cnn(C)c2C)C1 (centres unmarked) [Compound P-10, 1-[4-(1,5-dimethylpyrazol-4-yl)-3,4-dihydro-1H-isoquinolin-2-yl]octan-1-one] | ≥ 80 | – | – | ≥ 80 | ≥ 80 | ≥ 80 | –
17 | CCCCCNC(=O)N1Cc2ccccc2C(c2cnn(C)c2C)C1 (centres unmarked) [Compound P-31, 4-(1,5-dimethylpyrazol-4-yl)-N-pentyl-3,4-dihydro-1H-isoquinoline-2-carboxamide] | ≥ 80 | ≥ 80 | ≥ 80 | ≥ 80 | – | – | –
18 | Cc1c(C2CN(C(=O)CCc3ccc(F)cc3)Cc3ccccc32)cnn1C (centres unmarked) [Compound P-7, 1-[4-(1,5-dimethylpyrazol-4-yl)-3,4-dihydro-1H-isoquinolin-2-yl]-3-(4-fluorophenyl)propan-1-one] | – | – | ≥ 80 | ≥ 80 | – | – | –
19 | Cc1c([C@H]2CN(C(=O)OCCC3CCCCC3)[C@@H](C)c3ccccc32)cnn1C (racemic) [Compound P-16, 2-cyclohexylethyl rac-(1S,4S)-4-(1,5-dimethylpyrazol-4-yl)-1-methyl-3,4-dihydro-1H-isoquinoline-2-carboxylate] | ≥ 80 | – | – | ≥ 80 | ≥ 80 | ≥ 80 | –
20 | Cc1c(C2CN(C(=O)NCCCCCF)Cc3ccccc32)cnn1C (centres unmarked) [Compound P-49, 4-(1,5-dimethylpyrazol-4-yl)-N-(5-fluoropentyl)-3,4-dihydro-1H-isoquinoline-2-carboxamide] | – | ≥ 80 | – | ≥ 80 | – | – | –

From patent publication US20260193226A1, “MICROBIOCIDAL TETRAHYDROISOQUINOLINE DERIVATIVES” (SYNGENTA CROP PROTECTION AG, priority 2022, published 2026)
